Laboratory results published in US11147272B2, “Pyridone compounds and agricultural and horticultural fungicides comprising the same as active ingredients” (MITSUI CHEMICALS AGRO, INC., priority 2017, dated 2021).

Columns and labels:
Puccinia recondita = assay: Test Example E: Brown rust on wheat; type: in vivo
Botrytis cinerea = assay: Test Example B: Gray mold on tomato; conditions: for Test B control value class: class of control value
[1] = system: Colletotrichum orbiculare; assay: Test Example H: Anthracnose on cucumber; conditions: for Test H control value class: Anthracnose on cucumber (Sagami Hanjiro), 2.5 ml/pot, assessed 6 to 10 days after inoculation; for Test H control value: 6 to 10 days after inoculation
Magnaporthe grisea = assay: whole plant or invertebrate; type: in vivo; conditions: for Test A control value class: class of control value
Plasmopara viticola = assay: Test Example G: Downy mildew on vine; conditions: for Test G control value class: Downy mildew on vine (Neomuscat), 2.5 ml/pot, assessed 7 to 10 days after inoculation; for Test G control value: 7 to 10 days after inoculation
Alternaia brassicicola = assay: Test Example C: Alternaria sooty spot on cabbage; type: in vivo
Text: Seeds of a test plant (cabbage variety: Shikidori) were planted and cultivated until the cotyledons extended.
<Control Value> Control value=100{1−(n/3)}

[2] = system: Blumeria graminis f. sp. hordei; assay: Test Example D: Powdery mildew on barley; conditions: for Test D control value class: class of control value
Phytophthora infestans = assay: whole plant or invertebrate; type: in vivo; conditions: for Test F control value class: class of control value
[3] = Brown rust on wheat, class of control value
[4] = Alternaria sooty spot on cabbage, class of control value
[5] = 250 ppm drug solution sprayed on test plant
[6] = 250 ppm drug solution sprayed (2.5 ml/pot), cucumber Sagami Hanjiro
[7] = 250 ppm drug solution sprayed (2.5 ml/pot), grape Neomuscat
[8] = Brown rust on wheat, control value class
[9] = Gray mold on tomato, control value class
[10] = Anthracnose on cucumber, 250 ppm spray
[11] = Blast on rice, control value class
[12] = Downy mildew on vine, 250 ppm spray
[13] = Alternaria sooty spot on cabbage, control value class
[14] = Powdery mildew on barley, control value class
[15] = Late blight on tomato, control value class

| Structure (SMILES) | Test E control value (Puccinia recondita; [8]) | Test B control value (Botrytis cinerea; [9]) | Test H control value [1, 10] | Test A control value (Magnaporthe grisea; [11]) | Test G control value (Plasmopara viticola; [12]) | Test C control value (Alternaia brassicicola; [13]) | Test D control value [2, 14] | Test F control value (Phytophthora infestans; [15]) | also measured |
| --- | --- | --- | --- | --- | --- | --- | --- | --- | --- |
| CCn1c(-c2ccc(O)cc2F)c(CC(C)C)cc(Cl)c1=O [compound 118] |  |  |  |  |  |  |  |  | Test E control value class (Puccinia recondita; [3]): H (more than 50% control value); Test B control value class (Botrytis cinerea; Gray mold on tomato): H (more than 50% control value); Test H control value class ([1]; 250 ppm spray): L (50% or less control value); Test A control value class (Magnaporthe grisea; Blast on rice): L (50% or less control value); Test G control value class (Plasmopara viticola; 250 ppm spray): L (50% or less control value); Test C control value class (Alternaia brassicicola; [4]): H (more than 50% control value); Test D control value class ([2]; Powdery mildew on barley): L (50% or less control value); Test F control value class (Phytophthora infestans; Late blight on tomato): L (50% or less control value) |
| CCn1c(-c2c(F)cc(F)cc2F)c(C(C)(OC)C(C)C)ccc1=O (centres unmarked) [compound 479] |  |  |  |  |  |  |  |  | Test E control value (Puccinia recondita; [5]): H (more than 50% control value); Test B control value (Botrytis cinerea; [5]): H (more than 50% control value); Test H control value [1, 6]: H (more than 50% control value); Test A control value (Magnaporthe grisea; [5]): H (more than 50% control value); Test G control value (Plasmopara viticola; [7]): H (more than 50% control value); Test C control value (Alternaia brassicicola; [5]): H (more than 50% control value); Test D control value [2, 5]: H (more than 50% control value); Test F control value (Phytophthora infestans; [5]): L (50% or less control value) |
| CCn1c(-c2c(F)cc(F)cc2F)c(C(=O)C(C)C)cc(Br)c1=O [compound 366] | H (more than 50% control value) | H (more than 50% control value) | H (more than 50% control value) | H (more than 50% control value) | H (more than 50% control value) | H (more than 50% control value) | H (more than 50% control value) | L (50% or less control value) |  |
| C#CC(OC)c1cc(Cl)c(=O)n(CC)c1-c1c(F)cc(F)cc1F (centres unmarked) [compound 285] | H (more than 50% control value) | H (more than 50% control value) | H (more than 50% control value) | H (more than 50% control value) | L (50% or less control value) | H (more than 50% control value) | H (more than 50% control value) | L (50% or less control value) |  |
| CCn1c(-c2ccc(F)cc2Cl)c(CC(C)C)cc(Cl)c1=O [Compound No. 99, 3-chloro-6-(2-chloro-4-fluorophenyl)-1-ethyl-5-isobutylpyridin-2(1H)-one] |  |  |  |  |  |  |  |  | pest or weed control at 250 µg/mL (Puccinia recondita; Puccinia recondita, topical, Brown rust on wheat, class of control value, read-out: Test E control value class): > 50%; pest or weed control at 250 µg/mL (Botrytis cinerea; Botrytis cinerea, in Solanum lycopersicum, topical, read-out: Test B control value class): > 50%; pest or weed control at 250 ppm ([1]; Colletotrichum orbiculare, in Cucumis sativus, topical, read-out: Test H control value class): > 50%; pest or weed control at 250 µg/mL (Magnaporthe grisea; Pyricularia oryzae, in Oryza sativa, read-out: Test A control value class): > 50%; pest or weed control at 250 ppm (Plasmopara viticola; Plasmopara viticola, topical, read-out: Test G control value class): > 50%; pest or weed control at 250 µg/mL (Alternaia brassicicola; Brassica oleracea, topical, Alternaria sooty spot on cabbage, class of control value, read-out: Test C control value class): > 50%; pest or weed control at 250 µg/mL ([2]; Blumeria graminis, in Hordeum vulgare, topical, read-out: Test D control value class): > 50%; pest or weed control at 250 µg/mL (Phytophthora infestans; Phytophthora infestans, in Solanum lycopersicum, topical, read-out: Test F control value class): > 50% |
| CC(C)c1cc(Cl)c(=O)n(C)c1-c1c(F)cc(F)cc1F [compound 15] |  |  |  |  |  |  |  |  | Test E control value class (Puccinia recondita; [3]): H (more than 50% control value); Test B control value class (Botrytis cinerea; Gray mold on tomato): H (more than 50% control value); Test H control value class ([1]; 250 ppm spray): H (more than 50% control value); Test A control value class (Magnaporthe grisea; Blast on rice): H (more than 50% control value); Test G control value class (Plasmopara viticola; 250 ppm spray): L (50% or less control value); Test C control value class (Alternaia brassicicola; [4]): H (more than 50% control value); Test D control value class ([2]; Powdery mildew on barley): H (more than 50% control value); Test F control value class (Phytophthora infestans; Late blight on tomato): L (50% or less control value) |
| CC(C)Cc1ccc(=O)n(CC(F)F)c1-c1c(F)cc(F)cc1F [compound 297] | H (more than 50% control value) | H (more than 50% control value) | L (50% or less control value) | L (50% or less control value) | H (more than 50% control value) | H (more than 50% control value) | H (more than 50% control value) | L (50% or less control value) |  |
| CCOC(C)(c1cc(Cl)c(=O)n(CC)c1-c1c(F)cc(F)cc1F)C1CCCC1 (centres unmarked) [compound 256] | H (more than 50% control value) | L (50% or less control value) | L (50% or less control value) | L (50% or less control value) | H (more than 50% control value) | L (50% or less control value) | H (more than 50% control value) | L (50% or less control value) |  |
| CCn1c(-c2ccc(OC)cc2)c(CC(C)C)cc(Cl)c1=O [compound 195] | H (more than 50% control value) | H (more than 50% control value) | H (more than 50% control value) | H (more than 50% control value) | L (50% or less control value) | H (more than 50% control value) | H (more than 50% control value) | L (50% or less control value) |  |
| CCn1c(-c2c(F)cc(OC)cc2F)c(C)cc(I)c1=O [compound 380] |  |  |  |  |  |  |  |  | Test E control value (Puccinia recondita; [5]): H (more than 50% control value); Test B control value (Botrytis cinerea; [5]): H (more than 50% control value); Test H control value [1, 6]: H (more than 50% control value); Test A control value (Magnaporthe grisea; [5]): H (more than 50% control value); Test G control value (Plasmopara viticola; [7]): L (50% or less control value); Test C control value (Alternaia brassicicola; [5]): H (more than 50% control value); Test D control value [2, 5]: H (more than 50% control value); Test F control value (Phytophthora infestans; [5]): H (more than 50% control value) |
| CCn1c(-c2ccc(F)cc2Cl)c(C=C(Br)Br)cc(Cl)c1=O [compound 301] | H (more than 50% control value) | H (more than 50% control value) | H (more than 50% control value) | H (more than 50% control value) | L (50% or less control value) | H (more than 50% control value) | H (more than 50% control value) | L (50% or less control value) |  |
| CCCCCCCCCc1ccc(=O)n(CC)c1-c1ccc(F)cc1Cl [compound 273] | L (50% or less control value) | L (50% or less control value) | L (50% or less control value) | L (50% or less control value) | L (50% or less control value) | L (50% or less control value) | H (more than 50% control value) | L (50% or less control value) |  |
| CCCc1ccc(=O)n(C)c1-c1ccc(OC)cc1Cl [compound 334] | H (more than 50% control value) | H (more than 50% control value) | L (50% or less control value) | L (50% or less control value) | L (50% or less control value) | L (50% or less control value) | H (more than 50% control value) | L (50% or less control value) |  |
| C#CC(O)c1cc(Cl)c(=O)n(CC)c1-c1c(F)cc(F)cc1F (centres unmarked) [compound 283] | H (more than 50% control value) | H (more than 50% control value) | H (more than 50% control value) | L (50% or less control value) | L (50% or less control value) | H (more than 50% control value) | L (50% or less control value) | L (50% or less control value) |  |
| CCn1c(-c2ccc(F)cc2Cl)c(C=O)cc(Cl)c1=O [compound 294] | H (more than 50% control value) | H (more than 50% control value) | L (50% or less control value) | L (50% or less control value) | H (more than 50% control value) | H (more than 50% control value) | L (50% or less control value) | L (50% or less control value) |  |
| CCn1c(-c2c(F)cc(OC)cc2F)c(C(C)(CC(C)C)OC)cc(Cl)c1=O (racemic) [compound 165] |  |  |  |  |  |  |  |  | Test E control value class (Puccinia recondita; [3]): H (more than 50% control value); Test B control value class (Botrytis cinerea; Gray mold on tomato): H (more than 50% control value); Test H control value class ([1]; 250 ppm spray): H (more than 50% control value); Test A control value class (Magnaporthe grisea; Blast on rice): H (more than 50% control value); Test G control value class (Plasmopara viticola; 250 ppm spray): H (more than 50% control value); Test C control value class (Alternaia brassicicola; [4]): H (more than 50% control value); Test D control value class ([2]; Powdery mildew on barley): H (more than 50% control value); Test F control value class (Phytophthora infestans; Late blight on tomato): L (50% or less control value) |
